Measurements as given in US6262095A, “Use of tricyclic derivatives of 1,4-dihydro-1,4-dioxo-1H-naphthalene, novel compounds obtained and their application in theraphy” (Laboratoire Innothera, priority 1995, dated 2001).

Assays:
[1] = tested on: fibroblastic cell lines of mice (L929); assay: Cytotoxicity on L929 fibroblastic cell lines (neutral red incorporation); assay type: cell-based, mouse; details: L929, up to concentrations equal to their solubility in an aqueous medium
From the text: (§1) Moreover, the compounds of the invention and their possible salts have a very low toxicity.

[2] = tested on: saphenous vein in rabbits; assay: Contractile effect on the rabbit saphenous vein precontracted by a depolarizing physiological solution (K+ 40 mM); assay type: cell-based; details: Oryctolagus cuniculus, precontracted with 40 mM potassium; for Emax: % of maximum contraction induced by hyperpotassic solutions; for EC50: read-out: ED50 (the source's name)
Method: The contractile effects are measured in vitro under static conditions on vascular capacitance or resistance rings of saphenous, femoral, jugular, mesenteric, and caval veins . . . and on femoral, carotid, basilar, or mesenteric arteries, as well as the thoracic or abdominal aorta . . . in rats (Wistar, 200-250 g), rabbits (New Zealand, 2-2.5 kg), guinea pigs (Dunkin Hartley 250-300 g).
The rings are placed in a chamber for isolated organs (25 mL for capacitance vessels and 2.5 mL for resistance vessels according to Mulvany), and maintained under isometric conditions using two rigid threads inserted inside the vessel, avoiding causing damage to the endothelium. The vessels are bathed in a modified Krebs solution (in mM: NaCl=118; KCl=4.6; CaCl2 =2.5; MgSO4 =1.2; KH2 PO4 =1.17; NaHCO3 =25; glucose=11), continuously aerated using a gaseous mixture of 95% O2 and 5% Co2, at a pH=7.4, and regulated by thermostat at 37° C. The rings are adjusted to their optimal point as far as the tension-length relationship is concerned. The tensions developed generate an electrical signal through the intermediary of a force sensor (Wheatstone bridge). […] The pharmacological studies are carried out after a few standardized preliminary contractile stimulations using a depolarizing solution (hyperpotassic type obtained by replacing NaCl with KCl in equimolar quantities), along with rinsings and periods of equilibration in a pure physiological solution. The presence of endothelium is verified by the relaxation induced by increasing the concentration of acetylcholine after the stabilization of a vascular precontraction.
The forces of contraction developed by the vascular rings in response to the different compounds are studied on quiescent or electrically stimulated vessels (5-8 Hz), by a "physiological" depolarizing hyperpotassic solution (KCl: 20, 40 mM), by noradrenaline (increasing concentrations), [and by] serotonin (increasing concentrations).
The contractions are expressed in mg force or as a percentage of the maximum contraction at the time of the depolarization with a "physiological" hyperpotassic solution.
The contractile effect of different compounds on the saphenous vein in rabbits, precontracted by a depolarizing "physiological" solution with a potassium concentration of 40 mM, is given as an illustration; the maximum effect produced by each compound is expressed as a percentage of the maximum contraction induced by depolarizing hyperpotassic solutions and as value of ED50): […]

[3] = tested on: hyperpermeability induced by zymosan in rats; assay: Inflammatory hyperpermeability induced by zymosan in rats; assay type: in vivo, rat (Wistar); details: rat, oral
Method: The vascular permeability is studied in vivo by measuring the extravasation of albumin, the quantity of which is determined using an albumin-binding dye (Evans blue).
The hyperpermeability is induced by the intradermal injection of a solution of histamine, bradykinin, or zymosan.
The abdominal walls of the rats (Wistar, 200-230 g) are shorn 1 h before the start of the experiment. The product to be tested is injected by the intraperitoneal route or orally 1-4 h before the sacrifice. The rats are anesthetized with a halothane mixture. They then receive an intradermal injection in their abdomen of 0.10 or 0.15 mL (or for histamine 6.7 or […]) of inflammatory agent and an intravenous injection of 1 mL of 0.5% Evans blue solution in the vein of the penis. These injections are carried out 30 min before the sacrificing.
30 min after these two injections, the rats are sacrificed by cervical dislocation.
At the site of the injection of the inflammatory agent, the skin is cut and placed into glass tubes with a ground[-glass] neck containing 3 mL of fuming hydrochloric acid. […] After allowing the preparation to stand for 30 min, 7 mL of dichloromethane are added. The tubes are periodically agitated for 1 h. The aqueous phase is eliminated by aspiration, and the organic "dichloromethane" phase is filtered. The optical densities are quantified by absorption spectrophotometry at a wavelength of 620 nm, against a blank [control] containing only dichloromethane. The averages of the optical densities of the different lots of treated or control animals are calculated, then a percentage of variation of the values corresponding to the treated [experimental] animals compared to those of the control animals is calculated.

[4] = tested on: capillary resistance of rats; assay: Capillary resistance of rats after oral administration (petechial index); assay type: in vivo, rat (Wistar); details: rat
Method: The increase in the capillary resistance is evaluated by the modification of the petechial index (negative pressure inducing the extravasation of the erythrocytes), measured by a method derived from the angiosterrometer of Parrot.
The studies are carried out on male Wistar rats with an average weight of 200 g (approximate age six weeks). The bottom area of the back is shorn, then the hair is pulled by means of a paste based on a derivative of thioglycolic acid and calcium hydroxide. After approximately 30 min, the skin is abundantly rinsed and dried.
On the day of the study, the rats are maintained without constraint. A low pressure of 80 mm of mercury is applied. If the petechiae (extravasation of erythrocytes) have not appeared within 15 sec, the low pressure is increased as a countermeasure, keeping the suction cap at the same place.
The minimum low pressure where petechias appear, in mm of mercury, expresses the basal capillary resistance (before any treatment). Two measurements are made for each test at different sites on of the back.
The rats are treated by the oral route. […] All the measurements are done in the blind mode.
A percentage of variation in the capillary resistances of the animals treated compared to their basal capillary resistance is calculated for each compound studied, at each treatment time and compared with the control group (excipient only) or the reference group.

mice = assay: Single oral administration toxicity in mice; assay type: in vivo, mouse
From the text: as §1

[5] = single oral administration, 1 g/kg
[6] = single oral administration of 500 mg/kg

**Q.** What does the source list for O=C1c2ccccc2C(=O)c2sc(-c3cccs3)nc21 [Example 20, 4,9-Dihydro-4,9-dioxo-2-(2-thienyl)-naphtho[2,3-d]thiazole]?
**A.** cytotoxicity (viability by neutral red incorporation) [1]: noncytotoxic; Emax [2]: 24 ± 4%; EC50 [2]: 110 nM

**Q.** With O=C1c2ccccc2C(=O)c2oc(-c3ccccc3)nc21 [Example f, 4,9-Dihydro-4,9-dioxo-2-phenylnaphtho[2,3-d]oxazole] as the molecule, how does the “Zymosan-induced hyperpermeability, effect after 2 h” value ([3]; 0.1 mg/kg) read?
**A.** -15 % of the control

**Q.** And the “Zymosan-induced hyperpermeability, effect after 4 h” value ([3]; 0.1 mg/kg)?
**A.** -22 % of the control

**Q.** What about the “Increase of capillary resistance, effects after 4 h” value ([4]; 0.1 mg/kg) of the same molecule?
**A.** 7 % of the control

**Q.** What about the “Increase of capillary resistance, effect after 6 h” value ([4]; 0.1 mg/kg) of the same molecule?
**A.** 17 % of the control

**Q.** And the “cytotoxicity (viability by neutral red incorporation)” value (from here on “cytotoxicity”) [1]?
**A.** noncytotoxic

**Q.** And the Emax [2]?
**A.** 15 ± 1%

**Q.** What about the EC50 [2] of the same molecule?
**A.** 21 nM

**Q.** And the “toxic effect and mortality” value (mice; [5])?
**A.** no observable toxic effect and no mortality

**Q.** For O=C1c2ccccc2C(=O)c2oc(-c3ccccc3F)nc21 [Example 3, 4,9-Dihydro-4,9-dioxo-2-(2-fluorophenyl)-naphtho[2,3-d]oxazole], which “Zymosan-induced hyperpermeability, effect after 2 h” value ([3]; 0.1 mg/kg) is on record?
**A.** -22 % of the control

**Q.** And the “Zymosan-induced hyperpermeability, effect after 4 h” value ([3]; 0.1 mg/kg)?
**A.** -26 % of the control

**Q.** What about the “Increase of capillary resistance, effects after 4 h” value ([4]; 5 mg/kg) of the same molecule?
**A.** 27 % of the control

**Q.** What about the “Increase of capillary resistance, effect after 6 h” value ([4]; 5 mg/kg) of the same molecule?
**A.** 18 % of the control

**Q.** And the “cytotoxicity” value [1]?
**A.** noncytotoxic

**Q.** And the Emax [2]?
**A.** 17 ± 6%

**Q.** What about the EC50 [2] of the same molecule?
**A.** 36 nM

**Q.** And the observed signs (mice; [6])?
**A.** slight diarrheas

**Q.** What about the “toxic effect and mortality” value (mice; [6]) of the same molecule?
**A.** no observable toxic effect and no mortality

**Q.** What does the source list for O=C1c2ccccc2C(=O)c2sc(-c3ccsc3)nc21 [Example 21, 4,9-Dihydro-4,9-dioxo-2-(3-thienyl)-naphtho[2,3-d]thiazole]?
**A.** Zymosan-induced hyperpermeability, effect after 2 h ([3]; 5 mg/kg): -22 % of the control; Zymosan-induced hyperpermeability, effect after 4 h ([3]; 5 mg/kg): -21 % of the control; Increase of capillary resistance, effects after 4 h ([4]; 5 mg/kg): 10 % of the control; Increase of capillary resistance, effect after 6 h ([4]; 5 mg/kg): 22 % of the control; cytotoxicity (viability by neutral red incorporation) [1]: noncytotoxic

**Q.** How did the “cytotoxicity” value [1] turn out when O=C1c2ccccc2C(=O)c2oc(-c3cccc(F)c3)nc21 [Example 4, 4,9-Dihydro-4,9-dioxo-2-(3-fluorophenyl)-naphtho[2,3-d]oxazole] was run?
**A.** noncytotoxic

**Q.** And the Emax [2]?
**A.** 29 ± 11%

**Q.** And the EC50 [2]?
**A.** 42 nM

**Q.** O=C1c2ccccc2C(=O)c2sc(-c3ccccc3)nc21 [Example j, 4,9-Dihydro-4,9-dioxo-2-phenylnaphtho[2,3-d]thiazole] was tested. Which “Zymosan-induced hyperpermeability, effect after 2 h” value ([3]; 0.1 mg/kg) did it give?
**A.** -14 % of the control

**Q.** What about the “Zymosan-induced hyperpermeability, effect after 4 h” value ([3]; 0.1 mg/kg) of the same molecule?
**A.** -32 % of the control

**Q.** What about the “cytotoxicity” value [1] of the same molecule?
**A.** noncytotoxic

**Q.** What about the Emax [2] of the same molecule?
**A.** 16 ± 6%

**Q.** What about the EC50 [2] of the same molecule?
**A.** 30 nM

**Q.** What about the “toxic effect and mortality” value (mice; [6]) of the same molecule?
**A.** no observable toxic effect and no mortality

**Q.** Which results are given for Cc1nc2c(s1)C(=O)c1ccccc1C2=O [Example h, 4,9-Dihydro-4,9-dioxo-2-methylnaphtho[2,3-d]thiazole]?
**A.** Increase of capillary resistance, effects after 4 h ([4]; 0.1 mg/kg): 19 % of the control; Increase of capillary resistance, effect after 6 h ([4]; 0.1 mg/kg): 19 % of the control; Emax [2]: 29 ± 6%; EC50 [2]: 86 nM; observed signs (mice; [5]): diarrheas; toxic effect and mortality (mice; [5]): no observable toxic effect and no mortality
